Here are results for one compound from US7507407B2, “Immunoliposomes that optimize internationalization into target cells” (The Regents of the University of California, priority 1994, dated 2009).

In one data set the test system is WI-38 cells. In words: cytotoxicity of doxorubicin-loaded immunoliposomes, WI-38 cells. Format: cell-based. To be noted: minimal p185^HER2.
The subject of a further data set is SK-BR-3 cells. The conditions noted are these: treated 1 hour, counted after 3 days, doxorubicin concentration.

Experimental for SK-BR-3 cells: (A) SK-BR-3 cells. […] Cells in culture were treated for 1 hour with: conventional immunoliposomes (triangles); sterically stabilized (2 mole % PEG-PE) immunoliposomes (closed circles); control (irrelevant antibody) sterically stabilized (2 mole % PEG-PE) immunoliposomes (open circles); or free doxorubicin alone (closed squares). Immunoliposomes contained 60-70 μg antibody/μmol phospholipid and 55-80 μg doxorubicin/μmol phospholipid; antibody/doxorubicin ratio was 0.8-1.2. Cells were counted 3 days after treatment as described in Methods.
To test the cytotoxicity of doxorubicin-loaded immunoliposomes, SK-BR-3 or WI-38 cells in monolayer culture were incubated with free doxorubicin or doxorubicin-loaded immunoliposomes for 1 hour, and then washed extensively with media. The cells were then further incubated at 37° C. for 3 days, after which cell number was estimated by crystal violet staining as described above.

Regarding `COc1cccc2c1C(=O)c1c(O)c3c(c(O)c1C2=O)C[C@@](O)(C(=O)CO)C[C@@H]3O[C@H]1C[C@H](N)[C@H](O)[C@H](C)O1` [doxorubicin], the “cytotoxicity against WI-38 cells” value in the data set on WI-38 cells is listed as “significant dose-dependent cytotoxicity”. Moreover, in the data set on SK-BR-3 cells, the IC50 cytotoxicity result is reported as “approximately 0.3 μg/ml”.
